Source: PMC8952364, “Polyphenols as Inhibitors of Antibiotic Resistant Bacteria—Mechanisms Underlying Rutin Interference with Bacterial Virulence” (Pharmaceuticals, 2022)
Converted amounts (≈) assume the structure as drawn. Like-named read-outs stand apart in the source and are kept apart here.

Legend:
[1] = test system: Methicillin resistant S. aureus IBRS MRSA 011; assay: Antimicrobial microdilution assay (MIC/MBC); assay type: cell-based, Staphylococcus aureus; details: for MIC: 37 °C, 24 h; for MBC: subcultivation, 24 h at 37 °C
Outline: (§1)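 Polyphenols 0.0039–1 mg/mL, stocks in 30% ethanol; inoculum 0.5 McFarland diluted twenty-fold, mixed 1:10; 24 h, 37 °C. MIC = no visible growth (binocular microscope). Streptomycin positive control, ethanol negative control; triplicate.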

[2] = test system: P. aeruginosa IBRS P001; assay: Antimicrobial microdilution assay (MIC/MBC); assay type: cell-based, Pseudomonas aeruginosa; details: for MIC: 37 °C, 24 h; for MBC: subcultivation, 24 h at 37 °C
Outline: as §1

[3] = test system: P. aeruginosa MMA83; assay: Antimicrobial microdilution assay (MIC/MBC); assay type: cell-based, Pseudomonas aeruginosa; details: for MIC: 37 °C, 24 h; for MBC: subcultivation, 24 h at 37 °C
Outline: as §1

[4] = test system: E. coli IBRS E003; assay: Antimicrobial microdilution assay (MIC/MBC); assay type: cell-based, Escherichia coli; details: for MIC: 37 °C, 24 h; for MBC: subcultivation, 24 h at 37 °C
Outline: as §1

[5] = test system: E. coli IMD989; assay: Antimicrobial microdilution assay (MIC/MBC); assay type: cell-based, Escherichia coli; details: for MIC: 37 °C, 24 h; for MBC: subcultivation, 24 h at 37 °C
Outline: as §1

[6] = test system: A. baumannii 6077/12; assay: Antimicrobial microdilution assay (MIC/MBC); assay type: cell-based, Acinetobacter baumannii; details: for MIC: 37 °C, 24 h; for MBC: subcultivation, 24 h at 37 °C
Outline: as §1

[7] = test system: A. baumannii S2/2; assay: Antimicrobial microdilution assay (MIC/MBC); assay type: cell-based, Acinetobacter baumannii; details: for MIC: 37 °C, 24 h; for MBC: subcultivation, 24 h at 37 °C
Outline: as §1

[8] = test system: K. pneumoniae IT977; assay: Antimicrobial microdilution assay (MIC/MBC); assay type: cell-based, Klebsiella pneumoniae; details: for MIC: 37 °C, 24 h; for MBC: subcultivation, 24 h at 37 °C
Outline: as §1

[9] = test system: K. pneumoniae Ni9; assay: Antimicrobial microdilution assay (MIC/MBC); assay type: cell-based, Klebsiella pneumoniae; details: for MIC: 37 °C, 24 h; for MBC: subcultivation, 24 h at 37 °C
Outline: as §1

[10] = test system: A. xylosoxidans 37F; assay: Antimicrobial microdilution assay (MIC/MBC); assay type: cell-based, Achromobacter xylosoxidans; details: for MIC: 37 °C, 24 h; for MBC: subcultivation, 24 h at 37 °C
Outline: as §1

[11] = test system: S. infantis 1371/1; assay: Antimicrobial microdilution assay (MIC/MBC); assay type: cell-based, Salmonella Infantis; details: for MIC: 37 °C, 24 h; for MBC: subcultivation, 24 h at 37 °C
Outline: as §1

[12] = test system: HaCaT cells; assay: Cytotoxicity in HaCaT cell line (crystal violet assay); assay type: cell-based, human; details: HaCaT, 24 h treatment, crystal violet
Outline: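 HaCaT keratinocytes seeded 1 × 10^4 cells/well 24 h before treatment, then exposed to polyphenols for 24 h. Viable cells stained with crystal violet, absorbance at 590 nm. IC50 in μg/mL, triplicate with three readings each, mean ± SD.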

[13] = test system: E. coli ATCC 25922; set-up: method as in PMID 29327068; details: cited from earlier work
[14] = test system: HaCaT cells; set-up: method as in PMID 28962387; details: previous assessment; cited from earlier work
[15] = test system: P. aeruginosa IBRS P001 biofilm; assay: Crystal violet antibiofilm assay (biofilm formation); assay type: cell-based, Pseudomonas aeruginosa; details: 24 h
Outline: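 After incubation, biofilms were washed with PBS (pH 7.4), methanol-fixed and stained 30 min with 0.1% crystal violet. Stain was solubilised in 96% ethanol and read at 620 nm. Values are biofilm-forming capacity (%) relative to control.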

[16] = test system: eleven antibiotic resistant strains of bacteria; assay: Antimicrobial assay, summary over the examined strains; assay type: cell-based; details: antibiotic resistant strains of Table 1
Method: The bacterial suspension (0.5 Mc Farland) was prepared, and twenty-fold dilutions of these suspensions were mixed in a 1:10 ratio with the corresponding polyphenol dilution (0.0039–1 mg/mL). Microtiter plates were incubated at 37 °C for 24 h. The lowest concentrations without visible growth (under a binocular microscope) were defined as MICs. The bactericidal concentrations (MBCs) were determined by serial subcultivation of 2 μL of the well’s content and further incubation for 24 h at 37 °C. Streptomycin (SigmaAldrich, Darmstadt, Germany) was used as a positive control. The polyphenols were obtained from Extrasynthese, Rhone, France (rutin, isoquercitrin) and SigmaAldrich, Germany (hesperetin, hesperidin, naringenin, naringin, taxifolin, morin, chlorogenic acid, ferulic acid, p-coumaric acid, and gallic acid). The stock compounds were prepared in ethanol (30%), and adequate ethanol concentrations were used as the negative control in the assays. Experiments were done in triplicate.

[17] = test system: E. coli CECT434; set-up: method as in PMID 22823343; details: cited from earlier work
[18] = test system: P. aeruginosa ATCC 10145; set-up: method as in PMID 22823343; details: cited from earlier work
[19] = test system: S. aureus CECT 976; set-up: method as in PMID 22823343; details: cited from earlier work
[20] = test system: P. aeruginosa ATCC 10145 biofilms; set-up: method as in PMID 22823343; details: 1000 µg/mL; cited from earlier work

For `O=C(O)c1cc(O)c(O)c(O)c1` [Gallic Acid, gallic acid], the MIC ([1]; Staphylococcus aureus, MRSA, read-out: MIC) was over 1000 µg/mL, the MBC ([1]; Staphylococcus aureus, MRSA, read-out: MBC) was over 1000 µg/mL and the MIC ([2]; Pseudomonas aeruginosa, IBRSP001, read-out: MIC) was over 1000 µg/mL. For the same compound, the MBC ([2]; Pseudomonas aeruginosa, IBRSP001, read-out: MBC) was over 1000 µg/mL, the MIC ([3]; Pseudomonas aeruginosa, MMA83, read-out: MIC) was 1000 µg/mL (≈ 5.88 mM) and the MBC ([3]; Pseudomonas aeruginosa, MMA83, read-out: MBC) was 1000 µg/mL (≈ 5.88 mM). For the same compound, the MIC [4] was over 1000 µg/mL, the MIC ([4]; Escherichia coli, IBRSE003, read-out: MIC) was over 1000 µg/mL and the MBC ([4]; Escherichia coli, IBRSE003, read-out: MBC) was over 1000 µg/mL. The MIC [5] was over 1000 µg/mL, the MIC ([5]; Escherichia coli, IMD989, read-out: MIC) was over 1000 µg/mL and the MBC ([5]; Escherichia coli, IMD989, read-out: MBC) was over 1000 µg/mL. It also gave an MIC ([6]; Acinetobacter baumannii, 6077/12, read-out: MIC) of 500 µg/mL (≈ 2.94 mM), an MBC ([6]; Acinetobacter baumannii, 6077/12, read-out: MBC) of 1000 µg/mL (≈ 5.88 mM) and an MIC ([7]; Acinetobacter baumannii, S2/2, read-out: MIC) of 500 µg/mL (≈ 2.94 mM). The MBC ([7]; Acinetobacter baumannii, S2/2, read-out: MBC) was 500 µg/mL (≈ 2.94 mM), the MIC ([8]; Klebsiella pneumoniae, IT977, read-out: MIC) was 1000 µg/mL (≈ 5.88 mM) and the MBC ([8]; Klebsiella pneumoniae, IT977, read-out: MBC) was 1000 µg/mL (≈ 5.88 mM). It also gave an MIC ([9]; Klebsiella pneumoniae, NI9, read-out: MIC) of 1000 µg/mL (≈ 5.88 mM), an MBC ([9]; Klebsiella pneumoniae, NI9, read-out: MBC) of 1000 µg/mL (≈ 5.88 mM) and an MIC ([10]; Achromobacter xylosoxidans, 37F, read-out: MIC) of 500 µg/mL (≈ 2.94 mM). For the same compound, the MBC ([10]; Achromobacter xylosoxidans, 37F, read-out: MBC) was 1000 µg/mL (≈ 5.88 mM), the MIC ([11]; Salmonella enterica, 1371/1, read-out: MIC) was over 1000 µg/mL and the MBC ([11]; Salmonella enterica, 1371/1, read-out: MBC) was over 1000 µg/mL. The IC50 ([12]; Homo sapiens, read-out: IC50 (compound concentration that inhibited 50% of the cell growth)) was under 80 µg/mL, the MIC [13] was 500 µg/mL (≈ 2.94 mM) and the “IC50 towards HaCaT cells” value [14] was 84.2 µg/mL (≈ 0.495 mM).
For `COc1cc(/C=C/C(=O)O)ccc1O` [Ferulic acid, ferulic acid], the MIC [1] was 500 µg/mL (≈ 2.57 mM), the MBC [1] was 1000 µg/mL (≈ 5.15 mM) and the MIC [2] was 500 µg/mL (≈ 2.57 mM). The MBC [2] was 1000 µg/mL (≈ 5.15 mM), the MIC [3] was 1000 µg/mL (≈ 5.15 mM) and the MBC [3] was 1000 µg/mL (≈ 5.15 mM). For the same compound, the MIC [4] was over 1000 µg/mL, the MBC [4] was over 1000 µg/mL and the MIC [5] was 1000 µg/mL (≈ 5.15 mM). The MBC [5] was 1000 µg/mL (≈ 5.15 mM), the MIC [6] was 500 µg/mL (≈ 2.57 mM) and the MBC [6] was 500 µg/mL (≈ 2.57 mM). The MIC [7] was 500 µg/mL (≈ 2.57 mM), the MBC [7] was 500 µg/mL (≈ 2.57 mM) and the MIC [8] was 1000 µg/mL (≈ 5.15 mM). For the same compound, the MBC [8] was 1000 µg/mL (≈ 5.15 mM), the MIC [9] was 1000 µg/mL (≈ 5.15 mM) and the MBC [9] was 1000 µg/mL (≈ 5.15 mM). It also gave an MIC [10] of 1000 µg/mL (≈ 5.15 mM), an MBC [10] of 1000 µg/mL (≈ 5.15 mM) and an MIC [11] of 1000 µg/mL (≈ 5.15 mM). For the same compound, the MBC [11] was 1000 µg/mL (≈ 5.15 mM), the biofilm inhibition ([15]; 500 µg/mL (MIC)) was “even higher inhibition” and the “reduction of biofilm formation (biomass), in words” value ([15]; MIC and sub-MIC, crystal violet, Figure 1) was “significant (****, p < 0.0001) reduction”. For the same compound, the “IC50 (compound concentration that inhibited 50% of the cell growth)” value [12] was over 1000 µg/mL, the “lowest MIC among the examined strains” value [16] was 500 µg/mL and the MIC [17] was 100 µg/mL (≈ 0.515 mM). For the same compound, the MIC [18] was 100 µg/mL (≈ 0.515 mM), the MIC [19] was 1100 µg/mL (≈ 5.66 mM) and the reduction of biofilms [20] was “more than 70%”.
